The text below walks through data of US8420675B2, “Aminotetrahydroindazoloacetic acids” (Hoffmann-La Roche Inc., priority 2008, dated 2013).

The target in the experiment is T1, human CRTH2 (Homo sapiens, UniProt Q9Y5Y4).
T1 construct: expressed in transfected cells
T1 sequence (Q9Y5Y4 1-395): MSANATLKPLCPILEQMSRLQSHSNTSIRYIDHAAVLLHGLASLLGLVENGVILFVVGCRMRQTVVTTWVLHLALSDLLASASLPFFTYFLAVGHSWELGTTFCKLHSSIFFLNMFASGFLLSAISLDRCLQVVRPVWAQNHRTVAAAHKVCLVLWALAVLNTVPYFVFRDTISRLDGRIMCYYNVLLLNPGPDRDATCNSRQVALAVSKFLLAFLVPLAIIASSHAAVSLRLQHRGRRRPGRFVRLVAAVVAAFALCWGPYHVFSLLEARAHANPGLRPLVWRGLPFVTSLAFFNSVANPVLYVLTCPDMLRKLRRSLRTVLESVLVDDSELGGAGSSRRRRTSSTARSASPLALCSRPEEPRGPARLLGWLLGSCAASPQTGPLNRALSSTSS
As to the kind of experiment: Human CRTH2 Receptor Binding Assay (whole cell, [3H]ramatroban competition). As to conditions: CHO-K1 cells expressing human CRTH2 and G-alpha16; 20 nM [3H]ramatroban; 1 hour, room temperature. Summed up: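 CHO-K1 cells stably co-expressing human CRTH2 and G-alpha16, 1.5×10^5 per reaction, incubated 1 hour at room temperature with 20 nM [3H]ramatroban in PBS containing 10 mM MgCl2 and 0.06% BSA. Non-specific binding defined with 10 μM 15(R)-15-methyl PGD2. IC50 from 7 concentrations by 4-parameter logistic fit of specific binding inhibition.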

As to `CC(C)c1ccc(Oc2ncc(S(=O)(=O)N(C)[C@@H]3CCCc4c3cnn4CC(=O)O)cc2Br)cc1` [Example 6-11a, ((R)-4-{[5-Bromo-6-(4-isopropyl-phenoxy)-pyridine-3-sulfonyl]-methyl-amino}-4,5,6,7-tetrahydro-indazol-1-yl)-acetic acid], the IC50 (usually the concentration at which inhibition is half-maximal) came to 8.8 nM.

`CN([C@@H]1CCCc2c1cnn2CC(=O)O)S(=O)(=O)c1ccc(Oc2ccc(F)cc2)c(C(F)(F)F)c1` [Example 9-41a, ((R)-4-{[4-(4-Fluoro-phenoxy)-3-trifluoromethyl-benzenesulfonyl]-methyl-amino}-4,5,6,7-tetrahydro-indazol-1-yl)-acetic acid] had an IC50 of 7.5 nM.

As to `CC(=O)Nc1ccc(Oc2ccc(S(=O)(=O)N(C)[C@@H]3CCCc4c3cnn4CC(=O)O)cc2Cl)cc1` [Example 9-27a, ((R)-4-{[4-(4-Acetylamino-phenoxy)-3-chloro-benzenesulfonyl]-methyl-amino}-4,5,6,7-tetrahydro-indazol-1-yl)-acetic acid], the IC50 is 49.1 nM. This IC50 lies about 6.5-fold higher than the previous one.

`CN([C@@H]1CCCc2c1cnn2CC(=O)O)S(=O)(=O)c1ccc(Oc2ccccc2F)c(Cl)c1` [Example 9-37a, ((R)-4-{[3-Chloro-4-(2-fluoro-phenoxy)-benzenesulfonyl]-methyl-amino}-4,5,6,7-tetrahydro-indazol-1-yl)-acetic acid] gave an IC50 of 14.8 nM. The figure for `O=C(O)Cn1ncc2c1CCCC2NS(=O)(=O)c1cccc(Oc2ccccc2)c1` (centres unmarked) [Example 1-5a, [4-(3-Phenoxy-benzenesulfonylamino)-4,5,6,7-tetrahydro-indazol-1-yl]-acetic acid] is 164 nM; for `O=C(O)CCn1ncc2c1CCC[C@H]2NS(=O)(=O)c1cnc(Oc2ccc(Cl)cc2)c(Br)c1` [Example 2-12a, 3-{(R)-4-[5-Bromo-6-(4-chloro-phenoxy)-pyridine-3-sulfonylamino]-4,5,6,7-tetrahydro-indazol-1-yl}-propionic acid] it is 30.3 nM. Under `CN([C@@H]1CCCc2c1cnn2CC(=O)O)S(=O)(=O)c1ccc(Oc2ccc(Cl)cc2)c(C(F)(F)F)c1` [Example 9-5a, ((R)-4-{[4-(4-Chloro-phenoxy)-3-trifluoromethyl-benzenesulfonyl]-methyl-amino}-4,5,6,7-tetrahydro-indazol-1-yl)-acetic acid] stands 8.2 nM; under `Cc1cc(S(=O)(=O)NC2CCCc3c2cnn3CC(=O)O)cnc1Oc1ccc(Cl)cc1` (centres unmarked) [Example 3-1a, {4-[6-(4-Chloro-phenoxy)-5-methyl-pyridine-3-sulfonylamino]-4,5,6,7-tetrahydro-indazol-1-yl}-acetic acid], 34.9 nM. The figure for `O=C(O)Cn1ncc2c1CCCC2NS(=O)(=O)c1ccc(-c2ccccc2)c(C(F)(F)F)c1` (centres unmarked) [Example 10-9a, [4-(2-Trifluoromethyl-biphenyl-4-sulfonylamino)-4,5,6,7-tetrahydro-indazol-1-yl]-acetic acid] is 71.6 nM; for `Cc1cc(F)ccc1Oc1ccc(S(=O)(=O)N(C)[C@@H]2CCCc3c2cnn3CC(=O)O)cc1Cl` [Example 9-38a, ((R)-4-{[3-Chloro-4-(4-fluoro-2-methyl-phenoxy)-benzenesulfonyl]-methyl-amino}-4,5,6,7-tetrahydro-indazol-1-yl)-acetic acid] it is 8 nM; for `COc1ccc(-c2ccc(S(=O)(=O)NC3CCCc4c3cnn4CC(=O)O)cc2)cc1` (centres unmarked) [Example 10-1a, [4-(4′-Methoxy-biphenyl-4-sulfonylamino)-4,5,6,7-tetrahydro-indazol-1-yl]-acetic acid] it is 215 nM. In the case of `CN([C@@H]1CCCc2c1cnn2CC(=O)O)S(=O)(=O)c1ccc(Oc2ccc(F)cc2F)c(Cl)c1` [Example 9-32a, ((R)-4-{[3-Chloro-4-(2,4-difluoro-phenoxy)-benzenesulfonyl]-methyl-amino}-4,5,6,7-tetrahydro-indazol-1-yl)-acetic acid], the IC50 is 7.6 nM. The figure for `CN([C@@H]1CCCc2c1cnn2CCC(=O)O)S(=O)(=O)c1ccc(-c2cccc(C(F)(F)F)c2)cc1` [Example 11-2a, 3-{(R)-4-[Methyl-(3′-trifluoromethyl-biphenyl-4-sulfonyl)-amino]-4,5,6,7-tetrahydro-indazol-1-yl}-propionic acid] is 80.7 nM; for `CC(=O)c1cccc(-c2ccc(S(=O)(=O)NC3CCCc4c3cnn4CC(=O)O)cc2)c1` (centres unmarked) [Example 10-22a, [4-(3′-Acetyl-biphenyl-4-sulfonylamino)-4,5,6,7-tetrahydro-indazol-1-yl]-acetic acid] it is 152 nM; for `CN([C@@H]1CCCc2c1cnn2CC(=O)O)S(=O)(=O)c1ccc(Oc2ccc(Cl)cc2)cc1Cl` [Example 9-4a, ((R)-4-{[2-Chloro-4-(4-chloro-phenoxy)-benzenesulfonyl]-methyl-amino}-4,5,6,7-tetrahydro-indazol-1-yl)-acetic acid] it is 37.1 nM. The figure for `CC(C)Oc1cccc(-c2ccc(S(=O)(=O)NC3CCCc4c3cnn4CC(=O)O)cc2)c1` (centres unmarked) [Example 10-21a, [4-(3′-Isopropoxy-biphenyl-4-sulfonylamino)-4,5,6,7-tetrahydro-indazol-1-yl]-acetic acid] is 120 nM; for `Cc1ccc(Oc2ncc(S(=O)(=O)NC3CCCc4c3cnn4CC(=O)O)cc2Br)cc1` (centres unmarked) [Example 2-6a, [4-(5-Bromo-6-p-tolyloxy-pyridine-3-sulfonylamino)-4,5,6,7-tetrahydro-indazol-1-yl]-acetic acid] it is 26.4 nM; for `O=C(O)Cn1ncc2c1CCCC2NS(=O)(=O)c1ccc(-c2cccnc2)cc1` (centres unmarked) [Example 10-2a, [4-(4-Pyridin-3-yl-benzenesulfonylamino)-4,5,6,7-tetrahydro-indazol-1-yl]-acetic acid] it is 371 nM. The figure for `COc1cc(F)ccc1Oc1ccc(S(=O)(=O)N(C)[C@@H]2CCCc3c2cnn3CC(=O)O)cc1Cl` [Example 9-17a, ((R)-4-{[3-Chloro-4-(4-fluoro-2-methoxy-phenoxy)-benzenesulfonyl]-methyl-amino}-4,5,6,7-tetrahydro-indazol-1-yl)-acetic acid] is 12.9 nM; for `O=C(O)Cn1ncc2c1CCCC2NS(=O)(=O)c1ccc(-c2ccc(F)c(Cl)c2)cc1` (centres unmarked) [Example 10-15a, [4-(3′-Chloro-4′-fluoro-biphenyl-4-sulfonylamino)-4,5,6,7-tetrahydro-indazol-1-yl]-acetic acid] it is 466 nM; for `CN([C@@H]1CCCc2c1cnn2CC(=O)O)S(=O)(=O)c1cc(-c2ccc(F)cc2)cc(C(F)(F)F)c1` [Example 12-1a, {(R)-4-[(4′-Fluoro-5-trifluoromethyl-biphenyl-3-sulfonyl)-methyl-amino]-4,5,6,7-tetrahydro-indazol-1-yl}-acetic acid] it is 130 nM. `Cc1nnc(-c2cccc(S(=O)(=O)NC3CCCc4c3cnn4CC(=O)O)c2)o1` (centres unmarked) [Example 1-4a, {4-[3-(5-Methyl-[1,3,4]oxadiazol-2-yl)-benzenesulfonylamino]-4,5,6,7-tetrahydro-indazol-1-yl}-acetic acid] gave an IC50 of 244 nM. Under `CN([C@@H]1CCCc2c1cnn2CC(=O)O)S(=O)(=O)c1ccc(Oc2ccc(C(N)=O)cc2)c(Cl)c1` [Example 9-36a, ((R)-4-{[4-(4-Carbamoyl-phenoxy)-3-chloro-benzenesulfonyl]-methyl-amino}-4,5,6,7-tetrahydro-indazol-1-yl)-acetic acid] stands 23.1 nM. The figure for `Cc1ccc(Cl)c(Oc2ccc(S(=O)(=O)N(C)[C@@H]3CCCc4c3cnn4CC(=O)O)cc2Cl)c1` [Example 9-18a, ((R)-4-{[3-Chloro-4-(2-chloro-5-methyl-phenoxy)-benzenesulfonyl]-methyl-amino}-4,5,6,7-tetrahydro-indazol-1-yl)-acetic acid] is 13.4 nM. Consider `CN([C@@H]1CCCc2c1cnn2CC(=O)O)S(=O)(=O)c1cnc(Oc2ccc(Cl)cc2Cl)c(Br)c1` [Example 6-4a, ((R)-4-{[5-Bromo-6-(2,4-dichloro-phenoxy)-pyridine-3-sulfonyl]-methyl-amino}-4,5,6,7-tetrahydro-indazol-1-yl)-acetic acid], for which the IC50 amounted to 4.6 nM. This IC50 is about 2.9-fold lower than that of the molecule before.

`CN([C@@H]1CCCc2c1cnn2CC(=O)O)S(=O)(=O)c1ccc(Oc2ccc(F)cc2Cl)c(Cl)c1` [Example 9-16a, ((R)-4-{[3-Chloro-4-(2-chloro-4-fluoro-phenoxy)-benzenesulfonyl]-methyl-amino}-4,5,6,7-tetrahydro-indazol-1-yl)-acetic acid] returned an IC50 of 8 nM. This IC50 is about 1.7-fold higher than that of the molecule before.

Turning to `O=C(O)CCn1ncc2c1CCCC2NS(=O)(=O)c1ccc(-c2ccccc2)cc1` (single isomer, unassigned) [Example 10-30a, 3-[4-(biphenyl-4-sulfonylamino)-4,5,6,7-tetrahydro-indazol-1-yl]-propionic acid], the IC50 was found to be 5.6 nM. The figure for `O=C(O)Cn1ncc2c1CCC[C@H]2NS(=O)(=O)c1ccc(Oc2ccccc2Cl)cc1Cl` [Example 5-5a, {(R)-4-[2-Chloro-4-(2-chloro-phenoxy)-benzenesulfonylamino]-4,5,6,7-tetrahydro-indazol-1-yl}-acetic acid] is 6.9 nM. Under `CC(C)c1cccc(-c2ccc(S(=O)(=O)N[C@@H]3CCCc4c3cnn4CC(=O)O)cc2)c1` [Example 10-27a, [(R)-4-(3′-Isopropyl-biphenyl-4-sulfonylamino)-4,5,6,7-tetrahydro-indazol-1-yl]-acetic acid] stands 5.1 nM.
